US20220340983A1, “SYSTEMS AND ASSAYS FOR IDENTIFYING PU.1 INHIBITORS” (Massachustts Institute of Technology, priority 2019, published 2022)

Key:
[1] = tested on: iPSC-microglia; assay: Cell viability in iPSC-microglia; type: cell-based, human
Description: FIGS. 10A-10D show anti-inflammatory properties of A11 after IFNγ treatment on human induced pluripotent stem cell derived microglia. Cell viability is shown in FIG. 10A as measured with CellTiter Glo (Promega) in untreated (vehicle), A11 (2.5 μM) treated, IFNγ (25 ng/mL) treated and A11 +IFNγ treated cells. The morphology (round represent un-activated and elongated, filamentous represent activated by IFNγ) of these same conditions is shown in FIGS. 10B and quantified in FIG. 10C.
Human induced pluripotent stem cell derived microglia (iPSC-microglia) were activated with IFN-gamma (25 ng/mL, 3 days) and co-treated with A11 (2.5 μM, 2 days).
(§1) A concentration response curve was performed for cell viability and myelin uptake (FIG. 12A) in iPSC-microglia. Myelin uptake was measured by uptake of pHrodo-GFP-labelled wild-type mouse myelin particles (FIG. 12B). […] The IC50s obtained for these assays was in the low nM range, matching the data obtained in BV2 cells.

[2] = target: T1, PU.1 (Mus musculus, UniProt P17433); assay: Luciferase assay (luminescence) in BV2 PU.1-Luciferase reporter cells; type: cell-based; conditions: luminescence reduction in BV2 PU.1-Luciferase cells, concentration-response, Hill's equation
T1 construct: endogenous in cells; host or cells: BV2 PU.1-Luciferase (mouse microglial BV2 with a 5xLBB-luciferase reporter integrated at ROSA26)

[3] = tested on: iPSC-microglia; assay: Uptake of pHrodo-GFP-labelled mouse myelin particles in iPSC-microglia; type: cell-based, human; conditions: concentration response curve, after 48 h
Description: FIGS. 12A-12B show the effects of A11 on cell viability and myelin uptake after 48 h.
as §1

[4] = concentration response curve, iPSC-microglia, after 48 h

IC50 [2]: 2 nM | IC50 of myelin uptake [3]: low nM range
SMILES: O=S(=O)(NCc1ccncc1)c1ccc(C2CCCCC2)cc1 [Compound A11]
cell viability (CellTiter Glo) ([1]; IFN-gamma 25 ng/mL 3 days, co-treated with A11 2.5 μM 2 days): No significant change | IC50 of cell viability [1, 4]: low nM range | reduction in cell viability [1, 4]: weak reduction | maximal possible reduction in myelin uptake [3]: 50%
